# Data as given in patent publication US5559101A, “L-ribofuranosyl nucleosides” (priority 1994, dated 1996).
# Read-outs that look alike come from different tables or passages of the source.
# Columns and labels:
# OM-1 (colon) = test: Radiometric growth inhibition of tumor cells, OM-1; assay type: cell-based, human; parameters: % SURVIVAL TUMOR: concentration or dose not given beside the values; settings: for IC50: Homo sapiens
# From the text: (§1) CELL LINES: Eight different established human cell lines CALU (lung), COLO320 (colon), H578St (breast), HT-29 (colon), MCF-7 (breast), OM-1 (colon), SKLU (lung) and SKMES(lung), and two control cell lines (bone marrow and/or fibroblast cells) were utilized. All cell lines were obtained from the Tumor Cloning Laboratory, Institute for Drug Development, Cancer Therapy and Research Center, San Antonio, Tex. All cell lines grew as monolayers in the appropriate culture medium supplemented with heat-inactivated calf serum. All reagents were obtained from Grand Island Biological Co., Grand Island, N.Y.
# (§2) The iv formulations of the compounds of the present invention were prepared with sterile buffered saline and stored at -70° C. until required for testing.
# (§3) Following trypsinization, tumor cells were suspended in tissue culture medium and exposed to the antitumor agents continuously at three different concentrations: 10, 1 and 0.1 μg/ml.
# (§4) RADIOMETRIC MEASUREMENT OF GROWTH INHIBITION: Growth inhibition was assessed with the BACTEC System 460 (Johnston Laboratories, Towson, Md.) after addition of the antitumor agent to the cell in the respective growth medium containing ^14 C-glucose at a final concentration of 2 μCi/ml.
# (§5) Two mls of the tumor cell suspension containing radioactive glucose were seeded into sterile, disposable 15 ml vials by injection through self-sealing rubber-aluminum caps. […] The seeded vials were then incubated at 37° C. Measurement of the release of ^14 CO2 resulting from the metabolism of ^14 C-glucose were performed on days 6, 9, 12 and 15 in the BACTEC instrument. This instrument flushes the ^14 CO2 containing air out of the vials into an ionization chamber that converts dpm to growth index values. […] Each data point represents triplicate values.
# (§6) All compounds were dosed on an equimilimolar basis.
# [1] = In vitro survival of bone marrow control cells (radiometric BACTEC); assay type: cell-based; parameters: concentration or dose not given beside the values
# From the text: as §1, §2, §3, §4, §5, §6
# COLO320 (colon) = test: Radiometric growth inhibition of tumor cells, COLO320; assay type: cell-based, human; parameters: % SURVIVAL TUMOR: concentration or dose not given beside the values; settings: for % SURVIVAL TUMOR: continuous exposure; for IC50: Homo sapiens, COLO 320
# From the text: as §1, §2, §3, §4, §5, §6
# SKLU (lung) = test: Radiometric growth inhibition of tumor cells, SKLU; assay type: cell-based, human; parameters: % SURVIVAL TUMOR: concentration or dose not given beside the values; settings: for IC50: Homo sapiens
# From the text: as §1, §2, §3, §4, §5, §6
# CALU (lung) = test: Radiometric growth inhibition of tumor cells, CALU; assay type: cell-based, human
# From the text: as §1, §2, §3, §4, §5, §6
# HS578T (breast) = test: Radiometric growth inhibition of tumor cells, HS578T; assay type: cell-based, human; settings: HS578T; for % SURVIVAL TUMOR: continuous exposure; for IC50: Homo sapiens, Hs-578T, concentration required to kill 50%, read-out: IC 50
# From the text: as §1, §2, §3, §4, §5, §6
# MCF-7 (breast) = test: Radiometric growth inhibition of tumor cells, MCF-7; assay type: cell-based, human; parameters: % SURVIVAL TUMOR: concentration or dose not given beside the values; settings: MCF-7
# From the text: as §1, §2, §3, §4, §5, §6
# HT29 (colon) = test: Radiometric growth inhibition of tumor cells, HT29; assay type: cell-based, human; parameters: % SURVIVAL TUMOR: concentration or dose not given beside the values; settings: for IC50: Homo sapiens, HT-29, concentration required to kill 50%, read-out: IC 50
# From the text: as §1, §2, §3, §4, §5, §6
# [2] = OM-1, concentration required to kill 50%, read-out: IC 50
# [3] = bone marrow control cells, continuous exposure, read-out: % SURVIVAL BONE MARROW
# [4] = SKLU, concentration required to kill 50%, read-out: IC 50
# [5] = COLO320, concentration required to kill 50%, read-out: IC 50
smiles,measurement,setting,value
"O=c1ccn2c(n1)O[C@H]1[C@@H](O)[C@H](CO)O[C@H]12 [O^2,O^2' -Anhydro-1-α-L-ribofuranosyluracil]",IC50,OM-1 (colon); [2],2.97 µg/mL
same,% SURVIVAL TUMOR,"OM-1 (colon); OM-1, continuous exposure",46.4%
same,viability,[1]; [3],70.9%
"Nc1ccn([C@@H]2O[C@@H](CO)[C@H](O)[C@@H]2O)c(=O)n1 [α-L-ribofuranosyl cytosine, 1-α-L-Ribofuranosylcytosine]",% SURVIVAL TUMOR,COLO320 (colon); COLO320,82.3%
same,IC50,COLO320 (colon),34.9 µg/mL
same,IC50,SKLU (lung),240 µg/mL
same,% SURVIVAL TUMOR,"SKLU (lung); SKLU, continuous exposure",88.8%
same,viability,[1]; [3],120%
"O=c1[nH]c(=O)n([C@@H]2O[C@@H](CO)[C@H](O)[C@@H]2O)cc1F [α-L-ribofuranosyl-5-fluorouracil, 1-α-L-ribofuranosyl-5-fluorouracil]",IC50,OM-1 (colon); [2],0.87 µg/mL
same,% SURVIVAL TUMOR,"OM-1 (colon); OM-1, continuous exposure",0.4%
same,IC50,SKLU (lung); [4],43.4 µg/mL
same,% SURVIVAL TUMOR,"SKLU (lung); SKLU, continuous exposure",71%
same,viability,[1]; [3],94.6%
"O=c1ccn([C@@H]2O[C@@H](CO)[C@H](O)[C@@H]2O)c(=O)[nH]1 [α-L-ribofuranosyl-uracil, 1-α-L-Ribofuranosyluracil]",IC50,"CALU (lung); Homo sapiens, CALU, concentration required to kill 50%, read-out: IC 50",> 10 µg/mL
same,% SURVIVAL TUMOR,"CALU (lung); human, calu lung tumor cells",89.1%
same,viability,[1]; bone marrow cells,96.6%
"O=c1[nH]cnc2c1ncn2[C@H]1O[C@@H](CO)[C@H](O)[C@@H]1O [β-:-ribofuranosyl hypoxanthine, 9-β-L-Ribofuranosylhypoxanthine]",% SURVIVAL TUMOR,COLO320 (colon); COLO320,68.2%
same,IC50,COLO320 (colon); [5],17.9 µg/mL
same,IC50,OM-1 (colon); [2],82.7 µg/mL
same,% SURVIVAL TUMOR,"OM-1 (colon); OM-1, continuous exposure",87.3%
same,% SURVIVAL TUMOR,HS578T (breast),93.4%
same,IC50,HS578T (breast),> 10 µg/mL
same,IC50,SKLU (lung); [4],48.1 µg/mL
same,% SURVIVAL TUMOR,"SKLU (lung); SKLU, continuous exposure",82.5%
same,IC50,"MCF-7 (breast); Homo sapiens, MCF7, concentration required to kill 50%, read-out: IC 50",38.1 µg/mL
same,% SURVIVAL TUMOR,MCF-7 (breast); continuous exposure,96.8%
same,viability,[1]; [3],118%
"Nc1ncnc2c1ncn2[C@H]1O[C@@H](CO)[C@H](O)[C@@H]1O [β-L-ribofuranosyl adenine, 9-β-L-Ribofuranosyladenine]",IC50,OM-1 (colon); [2],4.23 µg/mL
same,% SURVIVAL TUMOR,"OM-1 (colon); human, om-1 colon tumor cells",50.9%
same,viability,[1]; bone marrow cells,91.2%
"Nc1ccn([C@H]2O[C@@H](CO)[C@H](O)[C@@H]2O)c(=O)n1 [β-L-ribofuranosyl cytosine, 1-β-L-Ribofuranosylcytosine]",IC50,OM-1 (colon),5.9 µg/mL
same,% SURVIVAL TUMOR,"OM-1 (colon); OM-1, continuous exposure",39.2%
same,viability,[1]; [3],72.6%
"Nc1nc(O)c2ncn([C@H]3O[C@@H](CO)[C@H](O)[C@@H]3O)c2n1 [β-L-ribofuranosyl guanine, 9-β-L-Ribofuranosylguanine]",IC50,OM-1 (colon); [2],0.097 µg/mL
same,% SURVIVAL TUMOR,"OM-1 (colon); OM-1, continuous exposure",44.7%
same,% SURVIVAL TUMOR,"HT29 (colon); HT29, continuous exposure",80.9%
same,IC50,HT29 (colon); HT29,> 10 µg/mL
same,viability,[1]; [3],170%
"O=c1ccn([C@H]2O[C@@H](CO)[C@H](O)[C@@H]2O)c(=O)[nH]1 [β-L-ribofuranosyl uracil, 1-β-L-Ribofuranosyluracil]",IC50,OM-1 (colon); [2],0.094 µg/mL
same,% SURVIVAL TUMOR,"OM-1 (colon); human, om-1 colon tumor cells",30.8%
same,IC50,HT29 (colon); HT29,> 10 µg/mL
same,% SURVIVAL TUMOR,"HT29 (colon); human, ht29 colon tumor cells",78.7%
same,viability,[1]; bone marrow cells,112%
"O=c1[nH]c(=O)n([C@H]2O[C@@H](CO)[C@H](O)[C@@H]2O)cc1F [β-L-ribofuranosyl-5-fluorouracil, 1-β-L-Ribofuranosyl-5-fluorouracil]",% SURVIVAL TUMOR,COLO320 (colon); COLO320,81.9%
same,IC50,COLO320 (colon); [5],188 µg/mL
same,IC50,OM-1 (colon); [2],37.8 µg/mL
same,% SURVIVAL TUMOR,"OM-1 (colon); OM-1, continuous exposure",71.9%
same,IC50,SKLU (lung); [4],32.2 µg/mL
same,% SURVIVAL TUMOR,"SKLU (lung); SKLU, continuous exposure",69.7%
same,% SURVIVAL TUMOR,"HT29 (colon); HT29, continuous exposure",64.7%
same,IC50,HT29 (colon); HT29,51 µg/mL
same,viability,[1]; [3],130%
"Nc1nc(S)c2ncn([C@H]3O[C@@H](CO)[C@H](O)[C@@H]3O)c2n1 [β-L-ribofuranosyl-6-thioguanine, 9-β-L-Ribofuranosyl-6-thioguanine]",IC50,OM-1 (colon); [2],42.7 µg/mL
same,% SURVIVAL TUMOR,"OM-1 (colon); human, om-1 colon tumor cells",83.1%
same,% SURVIVAL TUMOR,HS578T (breast),66.6%
same,IC50,HS578T (breast),17.1 µg/mL
same,IC50,SKLU (lung); [4],8.7 µg/mL
same,% SURVIVAL TUMOR,"SKLU (lung); human, sklu lung tumor cells",45.1%
same,viability,[1]; bone marrow cells,97.4%
